Experimental data as given in publication PMC7955952 (Pharmacology Research & Perspectives, 2021).

Target: Focal adhesion kinase (FAK) (Homo sapiens, UniProt Q05397)
Assay: biochemical

Sequence of Focal adhesion kinase (FAK) (Q05397 393-698): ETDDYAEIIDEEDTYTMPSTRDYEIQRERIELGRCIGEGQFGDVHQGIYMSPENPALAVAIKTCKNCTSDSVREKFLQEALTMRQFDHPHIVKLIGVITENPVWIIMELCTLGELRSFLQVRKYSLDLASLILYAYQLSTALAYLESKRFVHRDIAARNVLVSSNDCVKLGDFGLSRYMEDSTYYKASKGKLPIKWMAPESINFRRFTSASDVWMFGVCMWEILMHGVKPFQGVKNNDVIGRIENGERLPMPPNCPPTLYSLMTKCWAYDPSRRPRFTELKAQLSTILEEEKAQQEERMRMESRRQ

IC50: 9 ± 0.03 nM
Structure (SMILES): CS(=O)(=O)c1cccc(CNc2nc(Nc3ccc4c(c3)CCC(=O)N4)ncc2C(F)(F)F)c1 [PF573228, 6‐[[4‐[(3‐methylsulfonylphenyl)methylamino]‐5‐(trifluoromethyl)pyrimidin‐2‐yl]amino]‐3,4‐dihydro‐1H‐quinolin‐2‐one]
